Results taken from ChEMBL document CHEMBL1201862, “PubChem BioAssay data set” (2004).
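The compound was tested at five concentrations on cells cultured in 96-well plates, with a 48-hour exposure period. Abbreviation: GI50, concentration required for 50% inhibition of growth.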 The source made the active and inactive calls. Cut-off read from the data, not from the text of the source: active = GI50 up to about 1.1 µM and inactive = higher.

Columns and labels:
Assay in all cases: inhibition of tumour cell growth, NCI panel, 48 h
Malme-3M = tested on: Malme-3M
UACC-257 = tested on: UACC-257
RPMI-8226 = tested on: RPMI-8226
DMS-114 = tested on: DMS-114
ACHN = tested on: ACHN
NCI-H226 = tested on: NCI-H226
SW-620 = tested on: SW-620
786-0 = tested on: 786-0
HCT-15 = tested on: HCT-15
COLO 205 = tested on: COLO 205
SF-268 = tested on: SF-268
EKVX = tested on: EKVX
SK-MEL-2 = tested on: SK-MEL-2
U-251 = tested on: U-251
UO-31 = tested on: UO-31
KM12 = tested on: KM12
NCI/ADR-RES = tested on: NCI/ADR-RES
MDA-MB-435 = tested on: MDA-MB-435
SR = tested on: SR
DU-145 = tested on: DU-145

Row | Compound | GI50 (Malme-3M) | GI50 (UACC-257) | GI50 (RPMI-8226) | GI50 (DMS-114) | GI50 (ACHN) | GI50 (NCI-H226) | GI50 (SW-620) | GI50 (786-0) | GI50 (HCT-15) | GI50 (COLO 205) | GI50 (SF-268) | GI50 (EKVX) | GI50 (SK-MEL-2) | GI50 (U-251) | GI50 (UO-31) | GI50 (KM12) | GI50 (NCI/ADR-RES) | GI50 (MDA-MB-435) | GI50 (SR) | GI50 (DU-145)
1 | Cc1ccc([N+](=O)[O-])cc1NC(=O)c1cccc([N+](=O)[O-])c1O | 5.09 µM (inactive) | 9.59 µM (inactive) | 4.73 µM (inactive) | 8.73 µM (inactive) | 14.4 µM (inactive) | 13.6 µM (inactive) | 34.2 µM (inactive) | 28.9 µM (inactive) | 25 µM | 17.1 µM (inactive) | 14.6 µM (inactive) | 21.2 µM (inactive) | 7.98 µM (inactive) | 15.9 µM (inactive) | 6.27 µM (inactive) | 19.1 µM (inactive) | – | – | – | –
2 | COc1cc2cc[n+](C)c(Cc3ccccc3)c2cc1OC | > 100 µM (inactive) | > 100 µM (inactive) | > 100 µM (inactive) | 79.6 µM (inactive) | > 100 µM (inactive) | > 100 µM (inactive) | > 100 µM (inactive) | > 100 µM (inactive) | > 100 µM | > 100 µM (inactive) | > 100 µM (inactive) | > 100 µM (inactive) | > 100 µM (inactive) | > 100 µM (inactive) | > 100 µM (inactive) | > 100 µM (inactive) | – | – | – | –
3 | CN(C)CCNC(=O)c1cccc2ccc(-c3cccnc3)nc12 | 5.41 µM (inactive) | 4.15 µM (inactive) | – | 6.52 µM (inactive) | 3.44 µM (inactive) | 6.84 µM (inactive) | 3.76 µM (inactive) | 5.89 µM (inactive) | 4.06 µM | 3.13 µM (inactive) | 5.65 µM (inactive) | 4.47 µM (inactive) | 8.57 µM (inactive) | 4.36 µM (inactive) | 1.98 µM (inactive) | 6.5 µM (inactive) | – | – | – | –
4 | CC(=O)NC(CCCN)C(=O)NCc1ccccc1 (stereo not given) | > 100 µM (inactive) | > 100 µM (inactive) | > 100 µM (inactive) | > 100 µM (inactive) | > 100 µM (inactive) | > 100 µM (inactive) | > 100 µM (inactive) | > 100 µM (inactive) | > 100 µM | > 100 µM (inactive) | > 100 µM (inactive) | > 100 µM (inactive) | > 100 µM (inactive) | > 100 µM (inactive) | > 100 µM (inactive) | > 100 µM (inactive) | – | – | – | –
5 | Cn1c(=O)c(NC(=O)C(Cl)(Cl)Cl)nc2ccccc21 | > 100 µM (inactive) | > 100 µM (inactive) | > 100 µM (inactive) | > 100 µM (inactive) | – | 81.8 µM (inactive) | > 100 µM (inactive) | > 100 µM (inactive) | > 100 µM | > 100 µM (inactive) | > 100 µM (inactive) | 54.5 µM (inactive) | > 100 µM (inactive) | > 100 µM (inactive) | > 100 µM (inactive) | > 100 µM (inactive) | – | – | – | –
6 | CCOC(=O)CCc1c(C)c2c(OC(C)=O)cc(OC(C)=O)cc2oc1=O | 20.7 µM (inactive) | 38.9 µM (inactive) | – | 23.4 µM (inactive) | 28.1 µM (inactive) | > 10 µM (inactive) | 45.7 µM (inactive) | 78.7 µM (inactive) | – | > 100 µM (inactive) | 23.3 µM (inactive) | 58.3 µM (inactive) | 28.4 µM (inactive) | 55.6 µM (inactive) | 46.2 µM (inactive) | 37.4 µM (inactive) | – | – | – | –
7 | Nc1nnc2nc(CC(=O)/C=C/c3ccccc3)c(=O)[nH]n12 | > 100 µM (inactive) | > 100 µM (inactive) | > 100 µM (inactive) | > 100 µM (inactive) | > 100 µM (inactive) | > 100 µM (inactive) | > 100 µM (inactive) | > 100 µM (inactive) | > 100 µM | > 100 µM (inactive) | > 100 µM (inactive) | > 100 µM (inactive) | > 100 µM (inactive) | > 100 µM (inactive) | > 100 µM (inactive) | > 100 µM (inactive) | – | – | – | –
8 | O=C(Nc1c(-c2nc3ccccc3[nH]2)sc(=S)n1-c1ccccc1)c1ccccc1 | > 100 µM (inactive) | > 100 µM (inactive) | > 100 µM (inactive) | 98.9 µM (inactive) | > 100 µM (inactive) | 24.5 µM (inactive) | > 100 µM (inactive) | 91.2 µM (inactive) | > 100 µM | > 100 µM (inactive) | > 100 µM (inactive) | > 100 µM (inactive) | > 100 µM (inactive) | > 100 µM (inactive) | > 100 µM (inactive) | > 100 µM (inactive) | – | – | – | –
9 | CCN(CC)CCOC(=O)c1ccc(N)cc1.CCOC(=O)Nc1ccc(S(=O)(=O)OC)cc1.CCOC(=O)Nc1ccc(S(=O)(=O)OC)cc1.Nc1ccc(C(=O)O)c(O)c1 | > 100 µM (inactive) | > 100 µM (inactive) | – | > 100 µM (inactive) | > 100 µM (inactive) | > 100 µM (inactive) | > 100 µM (inactive) | > 100 µM (inactive) | > 100 µM | – | > 100 µM (inactive) | > 100 µM (inactive) | > 100 µM (inactive) | > 100 µM (inactive) | > 100 µM (inactive) | > 100 µM (inactive) | – | – | – | –
10 | N#C/C(=C\Nc1ccccn1)C(=O)c1ccco1 | > 100 µM (inactive) | > 100 µM (inactive) | > 100 µM (inactive) | – | > 100 µM (inactive) | > 100 µM (inactive) | > 100 µM (inactive) | > 100 µM (inactive) | > 100 µM | > 100 µM (inactive) | > 100 µM (inactive) | > 100 µM (inactive) | > 100 µM (inactive) | > 100 µM (inactive) | > 100 µM (inactive) | > 100 µM (inactive) | > 100 µM (inactive) | > 100 µM (inactive) | > 100 µM (inactive) | > 100 µM (inactive)
11 | CC1CNc2ccccc2N=C1NN (stereo not given) | > 100 µM (inactive) | > 100 µM (inactive) | > 36.5 µM (inactive) | – | > 100 µM (inactive) | > 100 µM (inactive) | > 100 µM (inactive) | > 100 µM (inactive) | > 100 µM | > 100 µM (inactive) | > 100 µM (inactive) | > 100 µM (inactive) | > 100 µM (inactive) | > 100 µM (inactive) | > 100 µM (inactive) | > 100 µM (inactive) | > 100 µM (inactive) | > 100 µM (inactive) | > 100 µM (inactive) | > 100 µM (inactive)
12 | NC(=O)N/N=C(/CC1C(=O)Oc2ccccc21)c1ccccc1O (stereo not given) | > 100 µM (inactive) | 44.7 µM (inactive) | 14.1 µM (inactive) | – | 39.7 µM (inactive) | 24.4 µM (inactive) | 45.7 µM (inactive) | 33.4 µM (inactive) | 38.4 µM | 98.2 µM (inactive) | > 100 µM (inactive) | 87.5 µM (inactive) | > 100 µM (inactive) | 30.1 µM (inactive) | 41.1 µM (inactive) | 31.9 µM (inactive) | 25.9 µM (inactive) | 43.8 µM (inactive) | 18.9 µM (inactive) | 50.1 µM (inactive)
13 | CSc1nc2c(nc(N)n2C2OC(CO)C(O)C(O)C2O)c(=O)n1C (stereo not given) | > 100 µM (inactive) | > 100 µM (inactive) | – | > 100 µM (inactive) | > 100 µM (inactive) | > 100 µM (inactive) | > 100 µM (inactive) | > 100 µM (inactive) | – | > 100 µM (inactive) | > 100 µM (inactive) | > 100 µM (inactive) | – | > 100 µM (inactive) | > 100 µM (inactive) | > 100 µM (inactive) | – | – | > 100 µM (inactive) | –
14 | O=C1N/C(=N/N=C\c2ccccc2)N/C1=C/c1ccccc1 | 34.2 µM (inactive) | 53.6 µM (inactive) | 26.6 µM (inactive) | – | 13.2 µM (inactive) | 14.8 µM (inactive) | 38.5 µM (inactive) | 33.6 µM (inactive) | 32.9 µM | 68.5 µM (inactive) | 27.3 µM (inactive) | 23.8 µM (inactive) | 27.6 µM (inactive) | 33.7 µM (inactive) | 41.9 µM (inactive) | 22.5 µM (inactive) | 22.9 µM (inactive) | 17.1 µM (inactive) | 16.1 µM (inactive) | 22.3 µM (inactive)
15 | S=c1nc(Nc2ccccc2)c2c3c(sc2[nH]1)CCCC3 | > 100 µM (inactive) | > 100 µM (inactive) | > 100 µM (inactive) | – | > 100 µM (inactive) | > 100 µM (inactive) | > 100 µM (inactive) | > 100 µM (inactive) | > 100 µM | > 100 µM (inactive) | > 100 µM (inactive) | 2.32 µM (inactive) | > 100 µM (inactive) | > 100 µM (inactive) | > 100 µM (inactive) | > 100 µM (inactive) | > 100 µM (inactive) | > 100 µM (inactive) | 8.67 µM (inactive) | > 100 µM (inactive)
16 | CC(NC1=NCCO1)c1cccc([N+](=O)[O-])c1 (stereo not given) | > 100 µM (inactive) | > 100 µM (inactive) | > 100 µM (inactive) | – | > 100 µM (inactive) | > 100 µM (inactive) | > 100 µM (inactive) | > 100 µM (inactive) | > 100 µM | > 100 µM (inactive) | > 100 µM (inactive) | > 100 µM (inactive) | > 100 µM (inactive) | > 100 µM (inactive) | > 100 µM (inactive) | > 100 µM (inactive) | > 100 µM (inactive) | > 100 µM (inactive) | > 100 µM (inactive) | > 100 µM (inactive)
17 | CC1CCCc2c(C#N)c(N)nc(-c3ccc(Cl)cc3)c21 (stereo not given) | 18.7 µM (inactive) | 25.4 µM (inactive) | 11.1 µM (inactive) | – | 17.6 µM (inactive) | 14.5 µM (inactive) | 53.6 µM (inactive) | 15.1 µM (inactive) | 11.7 µM | 18.8 µM (inactive) | 31.1 µM (inactive) | 14.7 µM (inactive) | 15.6 µM (inactive) | 22.2 µM (inactive) | 13.8 µM (inactive) | 17.9 µM (inactive) | 20.6 µM (inactive) | 23.8 µM (inactive) | 42.2 µM (inactive) | 33.7 µM (inactive)
